The values below come from patent US7160690B2, “Nitrate sensor” (Arete Associates, priority 2001, dated 2007).

The subject of one test is nitrate reductase. Conditions: read-out: Michaelis constant (Km) of nitrate reduction; nitrate concentration at which the reaction is half maximal; cited from earlier work.
Test [1] deals with molybdenum-molybdopterin (Mo-MPT) center of nitrate reductase. The note with it: for lowest nitrate concentration at which quenching of the emission signal is observed: FIG. 8. The method, then:
Instead, the biosensor method of this invention uses fluorescence detection to sense nitrate 30 levels.
Once the Mo-MPT 10 is obtained, its initial fluorescence signal is measured.
The quenched fluorescence (Q) is a function of the maximum possible quenching at an infinite nitrate concentration (Qmax) and the affinity of nitrate for its binding site (Kd) in the vicinity of its binding site, or Mo-MPT 10. Thus, it follows Q=(Q max [nitrate])/(Kd+[nitrate]) where: • Q is the quenched fluorescence; • Qmax is maximal quenching at infinite concentration of nitrate; and • Kd is nitrate affinity for the binding site. Quenching can also be considered in terms of: F=Fo−Q where: • F is the fluorescence in the presence of nitrate; • Fo is the fluorescence in the absence of nitrate; and • Q is the quenched fluorescence.
The data was used to calculate Qmax and Kd based on the above equations.
(§1) To further investigate the quenching of Mo-MPT 10 by nitrate 30, a comparison study was performed comparing quenching of Mo-MPT 10 versus FAD 14 by nitrate 30. […] The data line labeled 38 represents quenching of FAD 14, while the data line labeled 40 represents quenching of Mo-MPT 10.

Another test deals with FAD. The note with it: 0 to 20 ppm nitrate; FIG. 10, data line 38. On the procedure: as §1

Read-outs that look alike come from different tables or passages of the source.

What is called Km is the concentration of substrate that gives half-maximal velocity. Broadly, the Kd is the concentration at which binding is half-saturated. For the compound `O=[N+]([O-])O` [nitrate], the Km in the test with nitrate reductase is 13 µM. Besides, in test [1] (0 to 4 ppm nitrate, FIG. 10, data line 40), the “type of fluorescence quenching of Mo-MPT by nitrate” value is on record as “static quenching”. The “Qmax (maximal quenching at infinite concentration of nitrate)” value in test [1] (fluorescence at 440 nm, FIG. 9, exceeds unity, believed to be an experimental artifact) was 1.07. Also, the “lowest nitrate concentration at which quenching of the emission signal is observed” value is 0.3 ppm in test [1] (nitrate added at 0.3 ppm to 3.4 ppm) and 23 µmol in test [1] (same as 0.3 ppm). Moreover, in test [1] (read-out: Kd (nitrate affinity for the binding site, Mo-MPT), fluorescence at 440 nm, fit of Q=(Qmax[nitrate])/(Kd+[nitrate]), FIG. 9), the Kd turned out to be 20 µM. Besides, in the test on FAD, the “type of fluorescence quenching of FAD by nitrate / interaction” value is “no specific interaction”.
